Like-named read-outs stand apart in the source and are kept apart here.
Tests used:
[1] = tested on: thrombocyte aggregation in the platelet-rich plasma of healthy human test subjects; experiment: Inhibition of collagen-induced thrombocyte aggregation (method of Born and Cross); type: cell-based; conditions: 10^-4 mol/liter test compound, 10 minutes incubation at 37° C, vs untreated controls; for inhibition at 100 µM: Homo sapiens, 10 min
From the text: 1. The inhibiting action upon thrombocyte aggregation was ascertained by the method of Born and Cross, J. Physiol. 170, 397 (1964), in the platelet-rich plasma of healthy human test subjects, by photometrically ascertaning and registering the rate of decrease of the optical density after addition of commercial collagen containing 1 mgm of collagen fibrils per ml. The angle of inclination of the density curve is a measure of the rate of aggregaton (V max.). The point on the curve which corresponded to the greatest lightpermeability was used for calculation of the optical density (o.D.).
The collagen doses were held to a minimum, but still sufficiently large to result in an irreversible aggregation. Prior to addition of collagen, each plasma sale was incubated for 10 minutes at 37° C with various amounts of the test compound. To provoke maximum aggregation, about 0.01 ml of the collagen solution was added to 1 ml of platelet-rich plasma.
The values in Table I below represent the inhibition of the aggregation rate in % (V max) and the alteration of the optical density (O.D.) in %, compared with the untreated controls, i.e. without addition of the test compound.

non-anesthetized mice = experiment: Prolonging effect upon the bleeding time (method of Duke); type: in vivo; conditions: 10 mgm/kg per os, vs untreated animals; for change in vivo at 10 mg/kg: Mus musculus, po
From the text: 2. The prolonging effect upon the bleeding time was ascertained by the method of Duke, J. Amer. Med. Assoc. 15, 1185 (1910). 10 mgm/kg of the test compound were given per os to non-anesthetized mice. One or three hours after administration of the test compound, about 0.5 mm was cut off from the tail of each animal, and the exuded blood was carefully soaked up with filter paper at intervals of 30 seconds. The number of drops of blood so obtained was used as a measure for the bleeding time compared to untreated animals (5 animals/test).

white mice = experiment: Acute toxicity after oral administration of a single dose; type: in vivo; conditions: observation time 14 days
Method: (§1) The acute toxicity of the test compounds was determined in white mice (observation time: 14 days) after oral administration of a single dose.

[2] = as above; type: in vivo; conditions: mouse, in vivo, po, white mice, observation time 14 days
Method: as §1

[3] = 1 h, 1 hour after administration, read-out: Prolongation of bleeding time in % after 1 hour
[4] = 3 h, 3 hours after administration, read-out: Prolongation of bleeding time in % after 3 hours
[5] = read-out: Inhibition in % of the aggregation rate (V max)
[6] = read-out: Inhibition in %: alteration of the optical density (O.D.)

SMILES	Inhibition in % of the aggregation rate (V max) [1]	Inhibition in %: alteration of the optical density (O.D.) [1]	change in vivo at 10 mg/kg (non-anesthetized mice; [3])	change in vivo at 10 mg/kg (non-anesthetized mice; [4])	animals died (at the stated dose) (white mice)	Prolongation of bleeding time in % after 1 hour (non-anesthetized mice; 1 hour after administration)	Prolongation of bleeding time in % after 3 hours (non-anesthetized mice; 3 hours after administration)	inhibition at 100 µM [1, 5]	inhibition at 100 µM [1, 6]	LD50 at 336 h [2]
COC(=O)C[S+]([O-])C(C)c1ccc(-c2ccccc2F)cc1 (single isomer, unassigned) [A, [1-(2'-fluoro-4-biphenylyl)-ethylsulfinyl]-acetic acid methyl ester]	32%	45%	136%	66%	1 out of 10	–	–	–	–	–
COC(=O)C[S+]([O-])C(C)c1ccc(-c2ccccc2F)cc1 (single isomer, unassigned) [B, [1-(2'-fluoro-4-biphenylyl)-ethylsulfinyl]-acetic acid methyl ester]	72%	81%	–	–	2 out of 5	142%	56%	–	–	–
COC(=O)C[S+]([O-])C(C)c1ccc(-c2ccccc2F)cc1 (single isomer, unassigned) [F, dextrorotatory [1-(2'-fluoro-4-biphenylyl)-ethylsulfinyl]-acetic acid methyl ester]	–	–	117%	–	–	–	–	20%	19%	–
COC(=O)C[S+]([O-])C(C)c1ccc(-c2ccccc2F)cc1 (single isomer, unassigned) [G, levorotatory [1-(2'-fluoro-4-biphenylyl)-ethylsulfinyl]-acetic acid methyl ester]	13%	27%	–	–	–	129%	–	–	–	–
CC(C)CCOC(=O)C[S+]([O-])C(C)c1ccc(-c2ccccc2F)cc1 (centres unmarked) [C, [1-(2'-fluoro-4-biphenylyl)-ethylsulfinyl]-acetic acid isoamyl ester]	–	–	112%	49%	1 out of 5	–	–	67%	82%	> 250 mg/kg
COC(=O)C[S+]([O-])C(C)(C)c1ccc(-c2ccccc2F)cc1 (centres unmarked) [D]	–	–	71%	–	2 out of 5	–	–	37%	48%	> 250 mg/kg
COC(=O)C[S+]([O-])CCC(C)c1ccc(-c2ccccc2)cc1 (centres unmarked) [E, [3-(4-biphenylyl)-butyl-(1)-sulfinyl]-acetic acid methyl ester]	–	–	188%	85%	0 out of 5	–	–	92%	95%	> 250 mg/kg
CNC(=O)C[S+]([O-])C(C)c1ccc(-c2ccccc2F)cc1 (centres unmarked) [H, [1-(2'-fluoro-4-biphenylyl)-ethylsulfinyl]-acetic acid methyl amide]	–	–	64%	–	0 out of 5	–	–	8%	13%	> 250 mg/kg
CC(c1ccc(-c2ccccc2F)cc1)[S+]([O-])CC(=O)N1CCCCC1 (centres unmarked) [I, [1-(2'-fluoro-4-biphenylyl)-ethylsulfinyl]-acetic acid piperidide]	–	–	122%	–	0 out of 5	–	–	85%	90%	> 250 mg/kg
CC(c1ccc(-c2ccccc2F)cc1)[S+]([O-])CC(=O)N1CC[S+]([O-])CC1 (centres unmarked) [J, [1-(2'-fluoro-4-biphenylyl)-ethylsulfinyl]-acetic acid-(1-oxido-thiomorpholide)]	–	–	149%	–	0 out of 5	–	–	16%	31%	> 250 mg/kg
C[S+]([O-])CC(O)c1ccc(-c2ccc(F)cc2)cc1 (centres unmarked) [K]	–	–	68%	30%	–	–	–	59%	73%	–
COC(=O)C[S+]([O-])CC(=O)c1ccc(-c2ccccc2)cc1 (centres unmarked) [L, [2-(4-biphenylyl)-2-oxo-ethylsulfinyl]-acetic acid methyl ester]	–	–	120%	78%	–	–	–	22%	47%	–
COC(=O)C[S+]([O-])CC(=O)c1ccc(-c2ccccc2F)cc1 (centres unmarked) [M, [2-(2'-fluoro-4-biphenylyl)-2-oxo-ethylsulfinyl]-acetic acid methyl ester]	–	–	90%	39%	–	–	–	97%	95%	–
O=C(O)C[S+]([O-])CC(=O)c1ccc(-c2ccc(F)cc2)cc1 (centres unmarked) [N, [2-(4'-fluoro-4-biphenyl)-2-oxo-ethylsulfinyl]acetic acid]	–	–	98%	37%	–	–	–	–	–	–
COC(=O)C[S+]([O-])C(C)c1ccc(-c2cccc(Cl)c2)cc1 (centres unmarked) [O, [1-(3'-chloro-4-biphenylyl)-ethylsulfinyl]-acetic acid methyl ester]	–	–	12%	–	0 out of 5	–	–	66%	76%	> 250 mg/kg
COC(=O)C[S+]([O-])C(C)c1ccc(-c2ccccc2[N+](=O)[O-])cc1 (centres unmarked) [P, [1-(2'-nitro-4-biphenylyl)ethylsulfinyl]-acetic acid methyl ester]	–	–	15%	–	0 out of 5	–	–	61%	74%	> 250 mg/kg
COC(=O)C[S+]([O-])C(C)c1ccc(-c2ccccc2F)c(F)c1 (centres unmarked) [Q, [1-(2,2'-difluoro-4-biphenylyl)-ethylsulfinyl]-acetic acid methyl ester]	–	–	73%	–	0 out of 5	–	–	48%	54%	> 250 mg/kg
COC(=O)C[S+]([O-])C(C)c1ccc(-c2ccc(Br)cc2)c(F)c1 (centres unmarked) [R, [1-(2-fluoro-4'-bromo-4-biphenylyl)-ethylsulfinyl]-acetic acid methyl ester]	–	–	50%	–	–	–	–	46%	64%	–
COC(=O)CS(=O)(=O)C(C)c1ccc(-c2ccccc2F)cc1 (centres unmarked) [S]	–	–	83%	27%	0 out of 5	–	–	45%	66%	> 250 mg/kg
CC(C)CCOC(=O)CS(=O)(=O)C(C)c1ccc(-c2ccccc2F)cc1 (centres unmarked) [T, [1-(2'-fluoro-4-biphenylyl)-ethylsulfonyl]-acetic acid isoamyl ester]	–	–	51%	–	0 out of 5	–	–	76%	83%	> 250 mg/kg
CC(c1ccc(-c2ccccc2F)cc1)S(C)(=O)=O (centres unmarked) [U, [1-(2'-fluoro-4-biphenylyl)-ethyl]-methylsulfone]	–	–	56%	–	0 out of 5	–	–	87%	90%	> 250 mg/kg
O=C(O)CS(=O)(=O)Cc1ccc(-c2ccc(Cl)cc2)cc1 [V, [(4'-chloro-4-biphenylyl)-methylsulfonyl]-acetic acid, reference compound]	–	–	3%	–	3 out of 10	–	–	6%	11%	> 250 mg/kg

Source: patent publication US3993683A, “Biphenylyl derivatives” (Boehringer Ingelheim GmbH, priority 1974, dated 1976)
